Active and inactive are the calls of the source. No cut-off for these calls is given here. Where a SMILES comes first, the peptide text is derived from it. [ ]: non-standard residue; d: D form. The star is where a group is joined. Dolaproine = CO[C@@H]([C@@H]1CCCN1)[C@@H](C)C(=O)O; Dil = CC[C@H](C)[C@H](NC)[C@@H](CC(=O)O)OC; X1 = C[C@@H](N*)[C@@H](O)c1ccccc1; NMeV = CN[C@H](C(=O)O)C(C)C
Legend:
[1] = system: MKN-45; assay: Antitumor activity against KK-LC-1-positive human MKN-45 cells xenografted in male BALB/c nude mouse assessed as reduction in tumor growth; format: functional
[2] = system: MKN-45; assay: Antitumor activity against KK-LC-1-positive human MKN-45 cells xenografted in male BALB/c nude mouse assessed as tumor volume; format: functional
[3] = system: NUGC-4; assay: Induction of mitotic arrest in KK-LC-1-positive human NUGC-4 cells xenografted in nude mouse assessed as number of pHH3-positive nuclei in tumor at 4 nmol, iv administered as single dose and measured after 24 hrs by pHH3 immunohistochemical staining method relative to control; format: functional
[4] = system: HGC-27; assay: Cytotoxicity against KK-LC-1-negative human HGC-27 cells incubated for 72 hrs by CCK-8 assay; format: functional, cell-based; conditions: HGC-27, 72 h
[5] = system: MKN-45; assay: Cytotoxicity against KK-LC-1-positive human MKN-45 cells incubated for 72 hrs by CCK-8 assay; format: functional, cell-based; conditions: MKN-45, 72 h
[6] = system: NUGC-4; assay: Cytotoxicity against KK-LC-1-positive human NUGC-4 cells incubated for 72 hrs by CCK-8 assay; format: functional, cell-based; conditions: NUGC-4, 72 h

Q: What does the source list for `CC[C@H](C)[C@@H]([C@@H](CC(=O)N1CCC[C@H]1[C@H](OC)[C@@H](C)C(=O)N[C@H](C)[C@@H](O)c1ccccc1)OC)N(C)C(=O)[C@@H](NC(=O)[C@@H](NC)C(C)C)C(C)C` (H-[NMeV]V[Dil][Dolaproine]-X1)?
A: Activity [1]: Active; Activity [2]: 602.1 mm3; Activity [3]: 28.75; IC50 [4]: 7.18 nM; IC50 [5]: 10.7 nM; IC50 [6]: 11 nM

Source: ChEMBL document CHEMBL5108004, “An auristatin-based peptide-drug conjugate targeting Kita-Kyushu lung cancer antigen 1 for precision chemoradiotherapy in gastric cancer” (Eur J Med Chem, 2022)
